Assay results published in patent US11478496B2, “Treatments of prostate cancer” (THE FLORIDA INTERNATIONAL UNIVERSITY BOARD OF TRUSTEES, priority 2020, dated 2022).

Key:
[1] = tested on: BER reconstituted with purified Pol β, FEN1, and LIG I; assay: Secondary gel-based BER assay reconstituted with purified core BER enzymes; format: biochemical; settings: 10 μM compound, THF substrate
Description: The secondary screening assay was performed as described below in the “Materials and Methods” section. Lane 1 represents the substrate only. Lane 2 indicates the reaction mixture with 5 nM APE1. Lanes 3 and 4 correspond to the reaction mixture with 5 nM APE1, 10 nM pol β, 10 nM FEN1 and 20 nM LIG I in the absence and presence of dimethylsulfoxide (DMSO). Lanes 5 through 19 correspond to the reaction mixture with 5 nM APE1, 10 nM pol β, 10 nM FEN1 and 20 nM LIG I in the presence of indicated compounds. The experiments were repeated at least three times. A representative gel is illustrated.
The hit compounds were subject to secondary assays to determine their ability to reduce the BER capacity when reconstituted with purified core BER enzymes, as well as their inhibitory effects on individual BER enzymes including pol FEN1 and LIG I. The effect of hit compounds on BER capacity and BER enzymes was examined using a denaturing sequencing gel-based assay. 10 μM hit compounds were incubated with 10 nM pol β, 10 nM FEN1 and 20 nM LIG I in BER reaction buffer containing 50 mM Tris-HCl (pH 7.5), 50 mM KCl, 0.1 mM EDTA, 0.1 mg/ml bovine serum albumin, and 0.01% Nonidet P-40 in the presence of 5 mM Mg^2+ and 2 mM ATP. The compounds were initially preincubated with a BER enzyme at varying concentrations for 1 h with rotation. This was followed by the addition of 25 nM ^32P-labeled substrate containing an abasic site, which was precut with 25 or 50 nM APEI. The reaction mixture (20 μL) was incubated at 37° C. for 30 min, and the reaction was terminated by 50 mM EDTA. Substrates, products, and unrepaired BER intermediates were separated by 15% urea-denaturing sequencing gel and detected by a Pharos FX Plus PhosphorImager (Bio-Rad, Hercules, Calif.).
Among the 26 identified compounds, nine were DNA intercalators or inhibitors of human DNA topoisomerases and were excluded from further studies. Thus, […] FDA approved drugs were selected for further testing. To further confirm the inhibitory effects of the lead compounds on BER, the effects of the compounds on BER reactions reconstituted with purified BER core enzymes were initially determined.

RWPE1 cells = assay: Cell Titer Glo cell viability assay, RWPE1; format: cell-based; settings: 10 μM; after 24 h and 48 h; serum free medium with EGF and BPE
Description: FIGS. 4A-4B show cellular toxicity of lead compounds in nonmalignant androgen independent prostate-derived cell lines. (4A) PNT1A cells were plated in a 96-well plate at 1×10^4 cell/well in the presence of FBS or CSS. Cells were allowed to attach overnight and were treated with either vehicle (DMSO) or 10 μM of indicated compound. At 24 and 48 h, cellular viability was compared using the Cell Titer Glo Luminescent Cell Viability kit. (4B) RWPE1 cells were plated in a 96-well plate at 1×10^4 cells/well using the specified serum free media. Cells were allowed to attach overnight and treated with 10 μM of indicated compound.
Cell viability was determined using the Cell Titer Glo Cell Viability Assay (Promega, Madison, Wis.), as recommended by manufacturer. All experiments were performed in quadruplicate.
Next, whether the same concentration of compounds decreases the viability of the AR negative and nonmalignant prostate derived cells, PNT1A and RWPE1, was tested.

LNCaP cells = assay: MTT viability/toxicity assay, LNCaP; format: cell-based; settings: 48 h
Description: Cells were seeded in a 96 well plate at 1×10^4 cells/well and allowed to adhere overnight in the presence of FBS or CSS. The following day treatment was added to the wells and the plates were incubated for 24 h or 48 h. After incubation, 50 μL of MTT (2 mg/mL) was added to each well and incubated in the dark for 4 h. After incubation 150 μL of the media/MTT solution was removed and 100 μL of DMSO was added to each well and incubated for 15 min. Absorbance at 570 nm was measured using a ClarioStar Plate Reader (BMG LabTech, Ortenburg, Germany).

LIG I = LIG I (Homo sapiens, UniProt P18858); assay: LIG I activity on nicked substrate; format: biochemical; settings: 5 nM LIG I
Chain of LIG I (P18858 whole entry): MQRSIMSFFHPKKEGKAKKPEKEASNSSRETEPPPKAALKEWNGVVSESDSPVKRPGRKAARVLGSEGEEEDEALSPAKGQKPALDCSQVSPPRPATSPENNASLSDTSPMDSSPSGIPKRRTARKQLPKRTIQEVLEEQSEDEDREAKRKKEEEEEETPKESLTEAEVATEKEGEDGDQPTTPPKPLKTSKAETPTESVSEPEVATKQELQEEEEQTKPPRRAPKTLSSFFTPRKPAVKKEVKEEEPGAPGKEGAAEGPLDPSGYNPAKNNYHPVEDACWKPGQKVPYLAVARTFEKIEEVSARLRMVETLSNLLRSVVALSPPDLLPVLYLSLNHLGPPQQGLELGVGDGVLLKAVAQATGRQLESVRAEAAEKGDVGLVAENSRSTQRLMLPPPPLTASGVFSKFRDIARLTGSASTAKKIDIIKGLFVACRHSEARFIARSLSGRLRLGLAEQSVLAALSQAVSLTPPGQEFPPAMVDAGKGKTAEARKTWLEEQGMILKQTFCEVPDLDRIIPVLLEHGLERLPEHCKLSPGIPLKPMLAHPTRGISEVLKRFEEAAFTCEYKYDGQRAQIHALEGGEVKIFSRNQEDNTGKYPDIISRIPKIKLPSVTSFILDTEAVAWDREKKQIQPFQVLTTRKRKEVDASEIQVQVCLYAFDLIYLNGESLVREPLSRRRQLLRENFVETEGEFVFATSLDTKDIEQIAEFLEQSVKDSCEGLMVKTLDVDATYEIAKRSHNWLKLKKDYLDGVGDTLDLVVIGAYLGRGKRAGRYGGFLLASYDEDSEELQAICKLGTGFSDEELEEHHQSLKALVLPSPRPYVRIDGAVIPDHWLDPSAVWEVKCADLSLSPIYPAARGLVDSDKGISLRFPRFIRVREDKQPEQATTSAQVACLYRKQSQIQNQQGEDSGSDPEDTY
Description: (§1) Lane 1 represents the substrate only. Lanes 2 and 3 indicates the reaction mixture with 5 nM LIG I in the absence and presence of DMSO. […] The substrate was ^32P-labeled at the 5′-end of the upstream strand and is illustrated above the gel. The experiments were repeated at least three times. Representative gel is illustrated. Quantification of the results is shown below the gel. Two-way ANOVA with Tukey's multiple comparison posttests was used to determine statistically significant differences. * signifies p<0.05 compared to the control reaction with LIG I and DMSO. […] Lane 1 represents the substrate only. Lanes 2 and 3 indicates the reaction mixture with 5 nM pol β in the absence and presence of DMSO. […] The substrate was ^32P-labeled at the 5′-end of the upstream strand and is illustrated above the gel. The experiments were repeated at least three times. Quantification of the results are shown below the gel. Two-way ANOVA with Tukey's multiple comparison posttests was used to determine statistical significance. * signifies p<0.05 compared to the control reaction with pol β and DMSO.
(§2) BER reactions were terminated by adding 2× stopping buffer containing 95% formamide and 10 mM EDTA. Reaction mixtures were then denatured at 95° C. for 5 min and separated by 15% urea-denaturing polyacrylamide gel electrophoresis. Substrates and products were detected and analyzed using a Pharos FX Plus PhosphorImager (Bio-Rad, Hercules, Calif.).

pol β = pol β (Homo sapiens, UniProt P06746); assay: Pol β DNA synthesis on 1-nt gap substrate; format: biochemical
Description: as §1, §2

LAPC4 xenograft = tested on: LAPC4 xenograft
Source text: Human prostate cancer cell line LAPC4 is used to implant into immunocompromised NOD scid male mice. Once tumor sizes reach 0.5 cm^3, the mice are separated into two groups. […] At the end of the 4-week treatment, mice are euthanized. Their tumors are excised and weighed. Tumors, samples of adjacent nonmalignant tissues, and prostates are collected for comparative analysis.
A portion of the tumor is used for RNA-Seq (RNA sequencing) analysis to reveal the presence and quantity of the entire set of RNA present in these cells.
These measurements are performed using a fluorescence-based in situ DNA damage and repair assay.

`C[C@@H]1C/C=C/C=C/C=C/C=C/[C@H](O[C@@H]2O[C@H](C)[C@@H](O)[C@H](N)[C@@H]2O)C[C@@H]2O[C@](O)(C[C@@H](O)C[C@H]3O[C@@H]3/C=C/C(=O)O1)C[C@H](O)[C@H]2C(=O)O` [natamycin] was tested, and the “BER capacity and production of the BER repair product” value [1] was “significantly reduced BER capacity”, the RWPE1 cell viability (RWPE1 cells) was “significantly decreased” and the “concentration reducing viability of LNCaP cells” value (LNCaP cells; CSS medium) was ≥ 0.1 µM. For the same molecule, the “concentration required to reduce LNCaP viability” value (LNCaP cells; medium supplemented with FBS) was ≥ 2.5 µM, the “reduction of the activity of LIG I” value (LIG I; 0.5 μM natamycin) was 3.5 fold and the “decrease of the activity of LIG I” value (LIG I; 5 μM natamycin) was 14 fold. The “reduction of the activity of LIG I” value (LIG I; at 1 (unit not given) natamycin) was 3.5 fold, the “pol β 1 nt gap-filling synthesis” value (pol β; FIG. 8B, lanes 5-7) was “did not inhibit” and the “pol β strand-displacement synthesis” value (pol β; at 2 nM-5 nM) was “significant inhibitory effect”. The “reduction of pol β activity” value (pol β; at 10 (unit not given) natamycin, 5 nM pol β) was 3 fold, the “toxicity for prostate cancer cells in a mouse model” value (LAPC4 xenograft; LAPC4 xenograft, intravenously, 4 weeks) was “specific toxicity for prostate cancer cells” and the “tolerability by noncancerous tissues in a mouse model” value (LAPC4 xenograft; mouse, in vivo, iv) was “well-tolerated”.
